Results: ChEMBL document CHEMBL3885861, “Open TG-GATES”

Species: Rattus norvegicus
Test: Open TG-GATES - Regimen: Single
Format: toxicity, organism-based, Sprague-Dawley
Design: regimen Single, gender Male, age 6 weeks
Conditions: in vivo, iv, route intravenous injection; for Ca / Cl / DBIL / GLC / IP / K / LDH / Na / PL / RALB / TBIL / TC / TG / TP / gamma-GTP / A/G / ALP / ALT / AST / BUN / CRE: tissue Plasma; for APTT / Fbg / Hb / Ht / MCH / MCHC / MCV / PT / Plat / RBC / Ret / WBC: tissue Blood; for KIDNEY_L / KIDNEY_R / KIDNEY_TOTAL: tissue Kidney; for LIVER: tissue Liver
[1] = 3 mg/kg, 24 h, dose level Middle
[2] = 10 mg/kg, 24 h, dose level High

Compound `C[C@@H]1C[C@@H]([C@H](O)CC2CC(=O)NC(=O)C2)C(=O)[C@@H](C)C1` [CYCLOHEXIMIDE] has a Ca [1] of 9.8 mg/dL, a Cl [1] of 107.6 meq/L and a DBIL [1] of 0.004 mg/dL. For the same compound, the GLC [1] was 177 mg/dL, the IP [1] was 7.3 mg/dL and the K [1] was 4.4 meq/L. For the same compound, the LDH [1] was 231 IU/L, the Na [1] was 138.8 meq/L and the PL [1] was 74 mg/dL. For the same compound, the RALB [1] was 2.4 g/dL, the TBIL [1] was 0.028 mg/dL and the TC [1] was 38.4 mg/dL. It also gave a TG [1] of 80 mg/dL, a TP [1] of 4.2 g/dL and a gamma-GTP [1] of 1.6 IU/L. For the same compound, the TERMINAL_BW (10 mg/kg, 3 h, dose level High) was 216.7 g, the APTT (10 mg/kg, 3 h, dose level High) was 24.3 s and the Fbg (10 mg/kg, 3 h, dose level High) was 301 mg/dL. The Hb (10 mg/kg, 3 h, dose level High) was 15.2 g/dL, the Ht (10 mg/kg, 3 h, dose level High) was 47.2% and the MCH (10 mg/kg, 3 h, dose level High) was 21 pg. The MCHC (10 mg/kg, 3 h, dose level High) was 32.3%, the MCV (10 mg/kg, 3 h, dose level High) was 65.2 fL and the PT (10 mg/kg, 3 h, dose level High) was 18.5 s. The Plat (10 mg/kg, 3 h, dose level High) was 133.4 x10_4/uL, the RBC (10 mg/kg, 3 h, dose level High) was 726.4 x10_4/ul and the Ret (10 mg/kg, 3 h, dose level High) was 9.6%. It also gave a WBC (10 mg/kg, 3 h, dose level High) of 375 x10_2/uL, a KIDNEY_L (10 mg/kg, 3 h, dose level High) of 1 g and a KIDNEY_R (10 mg/kg, 3 h, dose level High) of 1 g. It also gave a KIDNEY_TOTAL (10 mg/kg, 3 h, dose level High) of 2 g, an LIVER (10 mg/kg, 3 h, dose level High) of 9.2 g and an A/G (10 mg/kg, 3 h, dose level High) of 1.3. The ALP (10 mg/kg, 3 h, dose level High) was 1467 IU/L, the ALT (10 mg/kg, 3 h, dose level High) was 74 IU/L and the AST (10 mg/kg, 3 h, dose level High) was 314.6 IU/L. The BUN (10 mg/kg, 3 h, dose level High) was 41.4 mg/dL, the CRE (10 mg/kg, 3 h, dose level High) was 0.1 mg/dL and the Ca (10 mg/kg, 3 h, dose level High) was 9.8 mg/dL. It also gave a Cl (10 mg/kg, 3 h, dose level High) of 109 meq/L, a DBIL (10 mg/kg, 3 h, dose level High) of 0.006 mg/dL and a GLC (10 mg/kg, 3 h, dose level High) of 334.2 mg/dL. It also gave an IP (10 mg/kg, 3 h, dose level High) of 13.4 mg/dL, a K (10 mg/kg, 3 h, dose level High) of 5.1 meq/L and an LDH (10 mg/kg, 3 h, dose level High) of 1625.2 IU/L. The Na (10 mg/kg, 3 h, dose level High) was 140 meq/L, the PL (10 mg/kg, 3 h, dose level High) was 82.4 mg/dL and the RALB (10 mg/kg, 3 h, dose level High) was 3 g/dL. The TBIL (10 mg/kg, 3 h, dose level High) was 0.014 mg/dL, the TC (10 mg/kg, 3 h, dose level High) was 63.8 mg/dL and the TG (10 mg/kg, 3 h, dose level High) was 20 mg/dL. It also gave a TP (10 mg/kg, 3 h, dose level High) of 5.3 g/dL, a gamma-GTP (10 mg/kg, 3 h, dose level High) of 3.2 IU/L and a TERMINAL_BW (10 mg/kg, 6 h, dose level High) of 213.8 g. The APTT (10 mg/kg, 6 h, dose level High) was 31.7 s, the Fbg (10 mg/kg, 6 h, dose level High) was 270.2 mg/dL and the Hb (10 mg/kg, 6 h, dose level High) was 17.7 g/dL. The Ht (10 mg/kg, 6 h, dose level High) was 54.8%, the MCH (10 mg/kg, 6 h, dose level High) was 21.6 pg and the MCHC (10 mg/kg, 6 h, dose level High) was 32.3%. It also gave an MCV (10 mg/kg, 6 h, dose level High) of 66.8 fL, a PT (10 mg/kg, 6 h, dose level High) of 29.8 s and a Plat (10 mg/kg, 6 h, dose level High) of 131.6 x10_4/uL. It also gave an RBC (10 mg/kg, 6 h, dose level High) of 818.8 x10_4/ul, a Ret (10 mg/kg, 6 h, dose level High) of 8.7% and a WBC (10 mg/kg, 6 h, dose level High) of 396.9 x10_2/uL. It also gave a KIDNEY_L (10 mg/kg, 6 h, dose level High) of 1 g, a KIDNEY_R (10 mg/kg, 6 h, dose level High) of 1 g and a KIDNEY_TOTAL (10 mg/kg, 6 h, dose level High) of 2 g. For the same compound, the LIVER (10 mg/kg, 6 h, dose level High) was 7.9 g, the A/G (10 mg/kg, 6 h, dose level High) was 1.1 and the ALP (10 mg/kg, 6 h, dose level High) was 1518.4 IU/L. It also gave an ALT (10 mg/kg, 6 h, dose level High) of 76.2 IU/L, an AST (10 mg/kg, 6 h, dose level High) of 315.8 IU/L and a BUN (10 mg/kg, 6 h, dose level High) of 69.4 mg/dL. For the same compound, the CRE (10 mg/kg, 6 h, dose level High) was 0.2 mg/dL, the Ca (10 mg/kg, 6 h, dose level High) was 7.2 mg/dL and the Cl (10 mg/kg, 6 h, dose level High) was 108.8 meq/L. For the same compound, the DBIL (10 mg/kg, 6 h, dose level High) was 0.002 mg/dL, the GLC (10 mg/kg, 6 h, dose level High) was 250.6 mg/dL and the IP (10 mg/kg, 6 h, dose level High) was 16.5 mg/dL. It also gave a K (10 mg/kg, 6 h, dose level High) of 6 meq/L, an LDH (10 mg/kg, 6 h, dose level High) of 1124 IU/L and a Na (10 mg/kg, 6 h, dose level High) of 138.8 meq/L. For the same compound, the PL (10 mg/kg, 6 h, dose level High) was 65 mg/dL, the RALB (10 mg/kg, 6 h, dose level High) was 2.8 g/dL and the TBIL (10 mg/kg, 6 h, dose level High) was 0.002 mg/dL. For the same compound, the TC (10 mg/kg, 6 h, dose level High) was 39 mg/dL, the TG (10 mg/kg, 6 h, dose level High) was 20.2 mg/dL and the TP (10 mg/kg, 6 h, dose level High) was 5.3 g/dL. The gamma-GTP (10 mg/kg, 6 h, dose level High) was 3.8 IU/L, the TERMINAL_BW (10 mg/kg, 9 h, dose level High) was 206.3 g and the APTT (10 mg/kg, 9 h, dose level High) was 47.2 s. It also gave a Fbg (10 mg/kg, 9 h, dose level High) of 228.4 mg/dL, a Hb (10 mg/kg, 9 h, dose level High) of 18.2 g/dL and a Ht (10 mg/kg, 9 h, dose level High) of 56.4%. The MCH (10 mg/kg, 9 h, dose level High) was 21.7 pg, the MCHC (10 mg/kg, 9 h, dose level High) was 32.3% and the MCV (10 mg/kg, 9 h, dose level High) was 67.4 fL. For the same compound, the PT (10 mg/kg, 9 h, dose level High) was 40.1 s, the Plat (10 mg/kg, 9 h, dose level High) was 112.8 x10_4/uL and the RBC (10 mg/kg, 9 h, dose level High) was 836.4 x10_4/ul. The Ret (10 mg/kg, 9 h, dose level High) was 8.9%, the WBC (10 mg/kg, 9 h, dose level High) was 386.2 x10_2/uL and the KIDNEY_L (10 mg/kg, 9 h, dose level High) was 1.1 g. It also gave a KIDNEY_R (10 mg/kg, 9 h, dose level High) of 1.1 g, a KIDNEY_TOTAL (10 mg/kg, 9 h, dose level High) of 2.1 g and an LIVER (10 mg/kg, 9 h, dose level High) of 7.9 g. It also gave an A/G (10 mg/kg, 9 h, dose level High) of 1.4, an ALP (10 mg/kg, 9 h, dose level High) of 1345.4 IU/L and an ALT (10 mg/kg, 9 h, dose level High) of 87.8 IU/L. The AST (10 mg/kg, 9 h, dose level High) was 291.8 IU/L, the BUN (10 mg/kg, 9 h, dose level High) was 94.4 mg/dL and the CRE (10 mg/kg, 9 h, dose level High) was 0.3 mg/dL. For the same compound, the Ca (10 mg/kg, 9 h, dose level High) was 6.6 mg/dL, the Cl (10 mg/kg, 9 h, dose level High) was 109 meq/L and the DBIL (10 mg/kg, 9 h, dose level High) was 0.0125 mg/dL. For the same compound, the GLC (10 mg/kg, 9 h, dose level High) was 215.2 mg/dL, the IP (10 mg/kg, 9 h, dose level High) was 17.4 mg/dL and the K (10 mg/kg, 9 h, dose level High) was 6.6 meq/L. For the same compound, the LDH (10 mg/kg, 9 h, dose level High) was 1399 IU/L, the Na (10 mg/kg, 9 h, dose level High) was 136 meq/L and the PL (10 mg/kg, 9 h, dose level High) was 69.6 mg/dL. For the same compound, the RALB (10 mg/kg, 9 h, dose level High) was 2.9 g/dL, the TBIL (10 mg/kg, 9 h, dose level High) was 0.01 mg/dL and the TC (10 mg/kg, 9 h, dose level High) was 34.4 mg/dL. The TG (10 mg/kg, 9 h, dose level High) was 61.4 mg/dL, the TP (10 mg/kg, 9 h, dose level High) was 5.2 g/dL and the gamma-GTP (10 mg/kg, 9 h, dose level High) was 3 IU/L. It also gave a TERMINAL_BW [2] of 198.6 g, an APTT [2] of 70.4 s and a Fbg [2] of 149.5 mg/dL. For the same compound, the Hb [2] was 16.4 g/dL, the Ht [2] was 49.4% and the MCH [2] was 20.9 pg. It also gave an MCHC [2] of 33.3%, an MCV [2] of 62.8 fL and a PT [2] of 35.1 s. The Plat [2] was 81.8 x10_4/uL, the RBC [2] was 784.5 x10_4/ul and the Ret [2] was 7.3%. For the same compound, the WBC [2] was 413.2 x10_2/uL, the KIDNEY_L [2] was 1 g and the KIDNEY_R [2] was 1 g. For the same compound, the KIDNEY_TOTAL [2] was 2 g, the LIVER [2] was 8 g and the A/G [2] was 1.3. It also gave an ALP [2] of 903.5 IU/L, an ALT [2] of 57.5 IU/L and an AST [2] of 192 IU/L. For the same compound, the BUN [2] was 106 mg/dL, the CRE [2] was 0.3 mg/dL and the Ca [2] was 7 mg/dL. For the same compound, the Cl [2] was 112 meq/L, the DBIL [2] was 0.02 mg/dL and the GLC [2] was 134 mg/dL. The IP [2] was 13.4 mg/dL, the K [2] was 5.3 meq/L and the LDH [2] was 1196.5 IU/L. For the same compound, the Na [2] was 141.5 meq/L, the PL [2] was 80 mg/dL and the RALB [2] was 2.5 g/dL. For the same compound, the TBIL [2] was 0.045 mg/dL, the TC [2] was 59 mg/dL and the TG [2] was 66.5 mg/dL. It also gave a TP [2] of 4.5 g/dL and a gamma-GTP [2] of 4 IU/L.
